Measured values taken from US12227512B2, “Benzimidazoles and methods of using same” (priority 2019, dated 2025).

How the values were obtained:
[1] = tested on: Gli-luciferace activity in the SUFU-KO-light cells; experiment: SUFU-KO-Light assay, inhibition of Gli-luciferase activity; format: cell-based; settings: read-out: IC50 (μM) SUFU-KO-Light; inhibition of Gli-luciferase activity; listed as Isis-11 (+isomer/E1)
Description: IC50 SUFO-KO-Light values are for inhibition of Gli-luciferace activity in the SUFU-KO-light cells developed by the James Chen laboratory at Stanford University.

[2] = tested on: SARS-CoV-2; settings: SARS-CoV-2-infected Vero E6 cells; 6 concentrations, 48 hours; XTT
[3] = Mouse PK evaluation, plasma, IV; settings: CD-1 mice; for concentration at 0.083 h / concentration at 0.25 h / concentration at 0.5 h / concentration at 1 h / concentration at 2 h / concentration at 4 h / concentration at 8 h / concentration at 24 h: Plasma concentration; for AUC(0-t): AUClast
[4] = tested on: MB002 cells; experiment: MTT assay, cell proliferation; format: cell-based; settings: MB002, read-out: Dose E1
[5] = CD-1, mouse, in vivo, 3 mg/kg, Mean, 3 mg/kg IV
[6] = CD-1, mouse, in vivo, 3 mg/kg, Mouse 1, 3 mg/kg IV
[7] = CD-1, mouse, in vivo, 3 mg/kg, Mouse 2, 3 mg/kg IV
[8] = CD-1, mouse, in vivo, 3 mg/kg, Mouse 3, 3 mg/kg IV

Compound: CN(C)CCCn1c(N)nc2ccc3c(c21)CC(CN(C)C)O3 (single isomer, unassigned) [Compound E1]
- IC50 [1]: 5 µM
- effect on viral replication over the tested concentration range [2]: no effect on viral replication
- AUC_%Extrap_obs, Mean ([3]; 3 mg/kg IV): 20.8%
- AUC_%Extrap_obs, Mouse 1 ([3]; 3 mg/kg IV): 25.7%
- AUC_%Extrap_obs, Mouse 2 ([3]; 3 mg/kg IV): 20.8%
- AUC_%Extrap_obs, Mouse 3 ([3]; 3 mg/kg IV): 15.9%
- AUClast/D, Mean ([3]; 3 mg/kg IV): 116
- AUClast/D, Mouse 1 ([3]; 3 mg/kg IV): 107
- AUClast/D, Mouse 2 ([3]; 3 mg/kg IV): 108
- AUClast/D, Mouse 3 ([3]; 3 mg/kg IV): 132
- C0, Mean ([3]; 3 mg/kg IV): 664 ng/mL
- C0, Mouse 1 ([3]; 3 mg/kg IV): 619 ng/mL
- C0, Mouse 2 ([3]; 3 mg/kg IV): 624 ng/mL
- C0, Mouse 3 ([3]; 3 mg/kg IV): 749 ng/mL
- Cl_obs, Mean ([3]; 3 mg/kg IV): 115 mL/min/kg
- Cl_obs, Mouse 1 ([3]; 3 mg/kg IV): 116 mL/min/kg
- Cl_obs, Mouse 2 ([3]; 3 mg/kg IV): 122 mL/min/kg
- Cl_obs, Mouse 3 ([3]; 3 mg/kg IV): 106 mL/min/kg
- Vss_obs, Mean ([3]; 3 mg/kg IV): 90 L/kg
- Vss_obs, Mouse 1 ([3]; 3 mg/kg IV): 104 L/kg
- Vss_obs, Mouse 2 ([3]; 3 mg/kg IV): 96.2 L/kg
- Vss_obs, Mouse 3 ([3]; 3 mg/kg IV): 68.3 L/kg
- Plasma concentration, Mouse 1 ([3]; 3 mg/kg IV, 0.5 h): 45.5 ng/mL
- Plasma concentration, Mouse 1 ([3]; 3 mg/kg IV, 1 h): 21.4 ng/mL
- Plasma concentration, Mouse 1 ([3]; 3 mg/kg IV, 2 h): 13.4 ng/mL
- Plasma concentration, Mouse 1 ([3]; 3 mg/kg IV, 24 h): 10.0 ng/mL
- Plasma concentration, Mouse 3 ([3]; 3 mg/kg IV, 24 h): 4.33 ng/mL
- concentration at 0.083 h [3, 5]: 387 ng/mL
- concentration at 0.25 h [3, 5]: 131 ng/mL
- concentration at 0.5 h ([3]; CD-1, mouse, in vivo, 3 mg/kg, Mean, 3 mg/kg IV, 0.5 h): 59.1 ng/mL
- concentration at 1 h ([3]; CD-1, mouse, in vivo, 3 mg/kg, Mean, 3 mg/kg IV, 1 h): 42.9 ng/mL
- concentration at 2 h ([3]; CD-1, mouse, in vivo, 3 mg/kg, Mean, 3 mg/kg IV, 2 h): 17.8 ng/mL
- concentration at 4 h [3, 5]: 13.5 ng/mL
- concentration at 8 h [3, 5]: 7.3 ng/mL
- concentration at 24 h ([3]; CD-1, mouse, in vivo, 3 mg/kg, Mean, 3 mg/kg IV, 24 h): 6.1 ng/mL
- concentration at 0.083 h [3, 6]: 352 ng/mL
- concentration at 0.25 h [3, 6]: 113 ng/mL
- concentration at 4 h [3, 6]: 13.3 ng/mL
- concentration at 8 h [3, 6]: 5.5 ng/mL
- concentration at 0.083 h [3, 7]: 367 ng/mL
- concentration at 0.25 h [3, 7]: 126 ng/mL
- concentration at 0.5 h ([3]; CD-1, mouse, in vivo, 3 mg/kg, Mouse 2, 3 mg/kg IV, 0.5 h): 60.9 ng/mL
- concentration at 1 h ([3]; CD-1, mouse, in vivo, 3 mg/kg, Mouse 2, 3 mg/kg IV, 1 h): 51.8 ng/mL
- concentration at 2 h ([3]; CD-1, mouse, in vivo, 3 mg/kg, Mouse 2, 3 mg/kg IV, 2 h): 20.7 ng/mL
- concentration at 4 h [3, 7]: 12.9 ng/mL
- concentration at 8 h [3, 7]: 6.2 ng/mL
- concentration at 24 h ([3]; CD-1, mouse, in vivo, 3 mg/kg, Mouse 2, 3 mg/kg IV, 24 h): 4.11 ng/mL
- concentration at 0.083 h [3, 8]: 443 ng/mL
- concentration at 0.25 h [3, 8]: 154 ng/mL
- concentration at 0.5 h ([3]; CD-1, mouse, in vivo, 3 mg/kg, Mouse 3, 3 mg/kg IV, 0.5 h): 71 ng/mL
- concentration at 1 h ([3]; CD-1, mouse, in vivo, 3 mg/kg, Mouse 3, 3 mg/kg IV, 1 h): 55.5 ng/mL
- concentration at 2 h ([3]; CD-1, mouse, in vivo, 3 mg/kg, Mouse 3, 3 mg/kg IV, 2 h): 19.2 ng/mL
- concentration at 4 h [3, 8]: 14.3 ng/mL
- concentration at 8 h [3, 8]: 10.2 ng/mL
- AUC(0-inf) ([3]; CD-1, mouse, in vivo, iv, 3 mg/kg, AUCInf, Mouse 3, 3 mg/kg IV): 470 ng·h/mL
- AUC(0-t) ([3]; CD-1, mouse, in vivo, iv, 3 mg/kg, Mean, 3 mg/kg IV): 347 ng·h/mL
- AUC(0-t) ([3]; CD-1, mouse, in vivo, iv, 3 mg/kg, Mouse 1, 3 mg/kg IV): 321 ng·h/mL
- AUC(0-t) ([3]; CD-1, mouse, in vivo, iv, 3 mg/kg, Mouse 2, 3 mg/kg IV): 324 ng·h/mL
- AUC(0-t) ([3]; CD-1, mouse, in vivo, iv, 3 mg/kg, Mouse 3, 3 mg/kg IV): 395 ng·h/mL
- MRT inf ([3]; CD-1, mouse, in vivo, iv, 3 mg/kg, MRTInf_obs, Mouse 3, 3 mg/kg IV): 10.7 h
- half-life ([3]; CD-1, mouse, in vivo, iv, 3 mg/kg, T1/2, Mouse 3, 3 mg/kg IV): 12 h
- IC50 [4]: 16.5 µM
